The supplement of paper PMC10307832

Experiments:
Assay in all cases: relative viability (nuclei count vs DMSO), 5 days (fraction); higher = more cells survive
NCI-H2126 = system: NCI-H2126
Procedure, shortened: (§1)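 Relative viability equals treated-well nuclei counts divided by vehicle-well nuclei counts. Counts came from 4× images of lung cancer cell lines grown in 1536-well plates for 5 days after pin-tool dosing on the day after seeding. Dosing used one drug alone or a fixed anchor-drug dose plus five library-drug doses (not always all listed) in √10 steps, and values are medians of duplicate plates.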

LCLC-103H = system: LCLC-103H
Procedure, shortened: as §1

SK-MES-1 = system: SK-MES-1
Procedure, shortened: as §1

NCI-H1944 = system: NCI-H1944
Procedure, shortened: as §1

NCI-H1993 = system: NCI-H1993
Procedure, shortened: as §1

PC-14 = system: PC-14
Procedure, shortened: as §1

LK-2 = system: LK-2
Procedure, shortened: as §1

HCC-827 = system: HCC-827
Procedure, shortened: as §1

NCI-H661 = system: NCI-H661
Procedure, shortened: as §1

NCI-H727 = system: NCI-H727
Procedure, shortened: as §1

NCI-H441 = system: NCI-H441
Procedure, shortened: as §1

HOP-62 = system: HOP-62
Procedure, shortened: as §1

EKVX = system: EKVX
Procedure, shortened: as §1

LXF-289 = system: LXF-289
Procedure, shortened: as §1

NCI-H647 = system: NCI-H647
Procedure, shortened: as §1

ChaGo-K-1 = system: ChaGo-K-1
Procedure, shortened: as §1

NCI-H2170 = system: NCI-H2170
Procedure, shortened: as §1

BEN = system: BEN
Procedure, shortened: as §1

LOU-NH91 = system: LOU-NH91
Procedure, shortened: as §1

NCI-H1666 = system: NCI-H1666
Procedure, shortened: as §1

NCI-H1355 = system: NCI-H1355
Procedure, shortened: as §1

RERF-LC-KJ = system: RERF-LC-KJ
Procedure, shortened: as §1

NCI-H1437 = system: NCI-H1437
Procedure, shortened: as §1

Cc1cn(-c2cc(NC(=O)c3ccc(C)c(Nc4nccc(-c5cccnc5)n4)c3)cc(C(F)(F)F)c2)cn1 [Nilotinib] + COc1cc2c(Oc3ccc(NC(=O)C4(C(=O)Nc5ccc(F)cc5)CC4)cc3F)ccnc2cc1OCCCN1CCOCC1 [Foretinib] (partner 0.25 µM)
relative viability (NCI-H2126; first compound 0.001 µM): 1.08
relative viability (NCI-H2126; first compound 0.003162 µM): 1.41
relative viability (NCI-H2126; first compound 0.01 µM): 1.26
relative viability (NCI-H2126; first compound 0.03162 µM): 1.2
relative viability (NCI-H2126; first compound 0.1 µM): 1.08
relative viability (LCLC-103H; first compound 0.001 µM): 0.737
relative viability (LCLC-103H; first compound 0.003162 µM): 0.86
relative viability (LCLC-103H; first compound 0.01 µM): 0.837
relative viability (LCLC-103H; first compound 0.03162 µM): 0.581
relative viability (LCLC-103H; first compound 0.1 µM): 0.67
relative viability (SK-MES-1; first compound 0.003162 µM): 1.13
relative viability (SK-MES-1; first compound 0.01 µM): 1.23
relative viability (SK-MES-1; first compound 0.03162 µM): 0.904
relative viability (SK-MES-1; first compound 0.1 µM): 0.963
relative viability (NCI-H1944; first compound 0.001 µM): 0.907
relative viability (NCI-H1944; first compound 0.003162 µM): 1.05
relative viability (NCI-H1944; first compound 0.01 µM): 1.06
relative viability (NCI-H1944; first compound 0.03162 µM): 0.739
relative viability (NCI-H1993; first compound 0.001 µM): 0.823
relative viability (NCI-H1993; first compound 0.003162 µM): 0.871
relative viability (NCI-H1993; first compound 0.01 µM): 0.989
relative viability (NCI-H1993; first compound 0.03162 µM): 0.742
relative viability (NCI-H1993; first compound 0.1 µM): 0.839
relative viability (PC-14; first compound 0.001 µM): 0.974
relative viability (PC-14; first compound 0.003162 µM): 1.11
relative viability (PC-14; first compound 0.01 µM): 1.07
relative viability (PC-14; first compound 0.03162 µM): 0.845
relative viability (PC-14; first compound 0.1 µM): 0.928
relative viability (LK-2; first compound 0.001 µM): 1.02
relative viability (LK-2; first compound 0.003162 µM): 1.53
relative viability (LK-2; first compound 0.01 µM): 1.1
relative viability (LK-2; first compound 0.03162 µM): 0.905
relative viability (LK-2; first compound 0.1 µM): 0.711
relative viability (HCC-827; first compound 0.003162 µM): 1.13
relative viability (HCC-827; first compound 0.01 µM): 1.06
relative viability (HCC-827; first compound 0.03162 µM): 0.939
relative viability (HCC-827; first compound 0.1 µM): 0.938
relative viability (NCI-H661; first compound 0.001 µM): 1.03
relative viability (NCI-H661; first compound 0.003162 µM): 1.18
relative viability (NCI-H661; first compound 0.03162 µM): 0.919
relative viability (NCI-H661; first compound 0.1 µM): 0.9
relative viability (NCI-H727; first compound 0.003162 µM): 1.16
relative viability (NCI-H727; first compound 0.01 µM): 1
relative viability (NCI-H727; first compound 0.03162 µM): 0.797
relative viability (NCI-H727; first compound 0.1 µM): 0.79
relative viability (NCI-H441; first compound 0.001 µM): 0.878
relative viability (NCI-H441; first compound 0.003162 µM): 1.26
relative viability (NCI-H441; first compound 0.01 µM): 1.32
relative viability (NCI-H441; first compound 0.03162 µM): 0.932
relative viability (NCI-H441; first compound 0.1 µM): 0.805
relative viability (HOP-62; first compound 0.001 µM): 0.802
relative viability (HOP-62; first compound 0.003162 µM): 1.16
relative viability (HOP-62; first compound 0.01 µM): 1.27
relative viability (HOP-62; first compound 0.03162 µM): 0.831
relative viability (HOP-62; first compound 0.1 µM): 0.771
relative viability (EKVX; first compound 0.001 µM): 0.726
relative viability (EKVX; first compound 0.003162 µM): 1
relative viability (EKVX; first compound 0.01 µM): 1.43
relative viability (EKVX; first compound 0.03162 µM): 0.512
relative viability (EKVX; first compound 0.1 µM): 0.187
relative viability (LXF-289; first compound 0.001 µM): 0.968
relative viability (LXF-289; first compound 0.003162 µM): 1.16
relative viability (LXF-289; first compound 0.03162 µM): 0.893
relative viability (LXF-289; first compound 0.1 µM): 0.761
relative viability (NCI-H647; first compound 0.001 µM): 1.09
relative viability (NCI-H647; first compound 0.003162 µM): 1.16
relative viability (NCI-H647; first compound 0.01 µM): 1.34
relative viability (NCI-H647; first compound 0.03162 µM): 0.879
relative viability (NCI-H647; first compound 0.1 µM): 0.86
relative viability (ChaGo-K-1; first compound 0.001 µM): 0.799
relative viability (ChaGo-K-1; first compound 0.003162 µM): 1.09
relative viability (ChaGo-K-1; first compound 0.01 µM): 1.03
relative viability (ChaGo-K-1; first compound 0.03162 µM): 0.582
relative viability (ChaGo-K-1; first compound 0.1 µM): 0.756
relative viability (NCI-H2170; first compound 0.001 µM): 1.03
relative viability (NCI-H2170; first compound 0.003162 µM): 1.14
relative viability (NCI-H2170; first compound 0.01 µM): 1.24
relative viability (NCI-H2170; first compound 0.03162 µM): 0.995
relative viability (NCI-H2170; first compound 0.1 µM): 1.01
relative viability (BEN; first compound 0.001 µM): 0.829
relative viability (BEN; first compound 0.003162 µM): 0.674
relative viability (BEN; first compound 0.01 µM): 0.494
relative viability (BEN; first compound 0.03162 µM): 0.647
relative viability (BEN; first compound 0.1 µM): 0.285
relative viability (LOU-NH91; first compound 0.001 µM): 0.995
relative viability (LOU-NH91; first compound 0.003162 µM): 0.961
relative viability (LOU-NH91; first compound 0.01 µM): 0.985
relative viability (LOU-NH91; first compound 0.03162 µM): 0.935
relative viability (LOU-NH91; first compound 0.1 µM): 0.92
relative viability (NCI-H1666; first compound 0.001 µM): 0.929
relative viability (NCI-H1666; first compound 0.003162 µM): 0.996
relative viability (NCI-H1666; first compound 0.03162 µM): 0.911
relative viability (NCI-H1666; first compound 0.1 µM): 1.07
relative viability (NCI-H1355; first compound 0.001 µM): 0.907
relative viability (NCI-H1355; first compound 0.003162 µM): 1.19
relative viability (NCI-H1355; first compound 0.01 µM): 1.25
relative viability (NCI-H1355; first compound 0.03162 µM): 0.893
relative viability (NCI-H1355; first compound 0.1 µM): 0.992
relative viability (RERF-LC-KJ; first compound 0.001 µM): 0.967
relative viability (RERF-LC-KJ; first compound 0.003162 µM): 1.08
relative viability (RERF-LC-KJ; first compound 0.01 µM): 0.924
relative viability (RERF-LC-KJ; first compound 0.03162 µM): 0.81
relative viability (RERF-LC-KJ; first compound 0.1 µM): 0.912
relative viability (NCI-H1437; first compound 0.001 µM): 1.2
relative viability (NCI-H1437; first compound 0.003162 µM): 1.39
relative viability (NCI-H1437; first compound 0.01 µM): 1.26
relative viability (NCI-H1437; first compound 0.03162 µM): 1.03
relative viability (NCI-H1437; first compound 0.1 µM): 1.27
